# Assays:
# [1] = system: Abeta 1-37, Abeta 1-38, Abeta 1-40 and Abeta 1-42 in cerebrospinal fluid (CSF); experiment: Pharmacology in the beagle dog, beta-amyloid profile in CSF (Test Example 18-1); format: in vivo
# Description: Test compounds were tested to evaluate the effect on the beta-amyloid profile in cerebrospinal fluid (CSF) of dogs after a single dose, in combination with pharmacokinetic (PK) follow up and limited safety evaluation.
# In the case of compounds shown below, two beagle dogs (1 male, 1 female) were dosed with vehicle (1 mL/kg of an aqueous solution of 20% cyclodextrin) and 4 beagle dogs (2 males and 2 females) were dosed with test compound at the doses indicated in the following Table in an aqueous 20% cyclodextrin solution with a concentration in mg/mL identical to the dose given in mg/kg) on an empty stomach.
# CSF was taken in conscious animals directly from the lateral ventricle via a cannula which was screwed in the skull and covered with subcutaneous tissue and skin, before and at 4, 8, 25 and 49 hours after dosing. Eight hours after dosing the animals got access to their regular meal for 30 minutes. Blood was taken for PK follow up (0.5, 1, 2, 4, 8, 25 and 49 hours) and serum samples for biochemistry were taken before and at 8 and 25 h after dosing. The CSF samples were used for measurement of Abeta 1-37, Abeta 1-38, Abeta 1-40 and Abeta 1-42.
# [2] = target: BACE1 (Homo sapiens, UniProt P56817); experiment: BACE1 biochemical FRET based assay (Test Example 2-1); settings: for selectivity: BACE2 IC50 over BACE1 IC50 (FRET); for IC50: FRET, 0.04 μg/mL BACE1, 450 minutes, Citrate buffer pH 5.0
# From the text: This assay is a Fluorescence Resonance Energy Transfer Assay (FRET) based assay. The substrate for this assay is an APP derived 13 amino acids peptide that contains the ‘Swedish’ Lys-Met/Asn-Leu mutation of the amyloid precursor protein (APP) beta-site secretase cleavage site. This substrate also contains two fluorophores: (7-methoxycoumarin-4-yl) acetic acid (Mca) is a fluorescent donor with excitation wavelength at 320 nm and emission at 405 nm and 2,4-dinitrophenol (Dnp) is a proprietary quencher acceptor. […] Upon cleavage by BACE1, the fluorophore Mca is separated from the quenching group Dnp, restoring the full fluorescence yield of the donor. The increase in fluorescence is linearly related to the rate of proteolysis.
# Briefly in a 384-well format recombinant BACE1 protein in a final concentration of 0.04 μg/mL is incubated for 450 minutes at room temperature with […] substrate in incubation buffer (final concentrations: 33.3 mM Citrate buffer pH 5.0, 0.033% PEG, 3% DMSO) in the absence or presence of compound. Next the amount of proteolysis is directly measured by fluorescence measurement at T=0′-120′ and T=450′ (excitation at 320 nm and emission at 405 nm). Results are expressed in RFU (Relative Fluorescence Units), as difference between T450 and Tx (Tx is chosen depending on the reaction speed between 0 and 120 minutes.).
# A best-fit curve is fitted by a minimum sum of squares method to the plot of % Controlmin versus compound concentration. From this an IC50 value (inhibitory concentration causing 50% inhibition of activity) can be obtained.
# [3] = target: T1, BACE2 (Homo sapiens, UniProt Q9Y5Z0); experiment: BACE2 biochemical FRET based assay (Test Example 2-1 (2)); settings: 0.4 μg/mL BACE2, 450 minutes, Citrate buffer pH 5.0
# T1 sequence (Q9Y5Z0 63-518): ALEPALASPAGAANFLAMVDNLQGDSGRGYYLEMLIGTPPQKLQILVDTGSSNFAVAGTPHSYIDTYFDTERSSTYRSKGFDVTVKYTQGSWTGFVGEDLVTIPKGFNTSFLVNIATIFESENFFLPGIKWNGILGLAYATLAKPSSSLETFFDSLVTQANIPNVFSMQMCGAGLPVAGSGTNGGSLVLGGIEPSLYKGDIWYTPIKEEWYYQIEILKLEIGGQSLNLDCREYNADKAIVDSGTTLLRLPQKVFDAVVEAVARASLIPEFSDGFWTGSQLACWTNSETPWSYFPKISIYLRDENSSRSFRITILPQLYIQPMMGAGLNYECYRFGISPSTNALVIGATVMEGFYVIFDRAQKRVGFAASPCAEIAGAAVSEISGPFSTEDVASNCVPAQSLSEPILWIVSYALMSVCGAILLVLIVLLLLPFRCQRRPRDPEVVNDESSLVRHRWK
# From the text: This assay is a Fluorescence Resonance Energy Transfer Assay (FRET) based assay. The substrate for this assay contains the ‘Swedish’ Lys-Met/Asn-Leu mutation of the amyloid precursor protein (APP) beta-secretase cleavage site. This substrate also contains two fluorophores: (7-methoxycoumarin-4-yl) acetic acid (Mca) is a fluorescent donor with excitation wavelength at 320 nm and emission at 405 nm and 2,4-dinitrophenol (Dnp) is a proprietary quencher acceptor. […] Upon cleavage by the beta-secretase, the fluorophore Mca is separated from the quenching group Dnp, restoring the full fluorescence yield of the donor. The increase in fluorescence is linearly related to the rate of proteolysis. Briefly in a 384-well format recombinant BACE2 protein in a final concentration of 0.4 μg/mL was incubated for 450 minutes at room temperature with 10 μM substrate in incubation buffer (final concentrations: 33.3 mM Citrate buffer pH 5.0, 0.033% PEG, 2% DMSO) in the absence or presence of compound. Next the amount of proteolysis was directly measured by fluorescence measurement at T=0 and T=450 (excitation at 320 nm and emission at 405 nm). Results were expressed in RFU (Relative Fluorescence Units), as difference between T450 and TO.
# A best-fit curve was fitted by a minimum sum of squares method to the plot of % Controlmin versus compound concentration. From this an IC50 value (inhibitory concentration causing 50% inhibition of activity) can be obtained.
# [4] = target: T2, CYP3A4 (Homo sapiens, UniProt P08684); experiment: CYP3A4(MDZ) MBI test (Test Example 4-2); format: in vitro ADME; settings: pooled human liver microsomes, 10 μmol/L MDZ, pre-reaction 0 or 30 minutes; shifted IC value
# T2 construct: from tissue; host or cells: pooled human liver microsomes
# Description: CYP3A4(MDZ) MBI test is a test of investigating mechanism based inhibition (MBI) potential on CYP3A4 inhibition of a compound. CYP3A4 inhibition is evaluated using 1-hydroxylation reaction of midazolam (MDZ) by pooled human liver microsomes as a marker reaction.
# The reaction conditions were as follows: substrate, 10 μmol/L MDZ; pre-reaction time, 0 or 30 minutes; substrate reaction time, 2 minutes; reaction temperature, 37° C.; protein content of pooled human liver microsomes, 0.5 mg/mL at pre-reaction time, […] (at 10-fold dilution) at reaction time; concentrations of the compound of the present invention, 1, 5, 10, 20 μmol/L (4 points).
# Pooled human liver microsomes in a K-Pi buffer (pH 7.4) and a compound of the present invention solution as a pre-reaction solution were added to a 96-well plate at the composition of the pre-reaction. A part of pre-reaction solution was transferred to another 96-well plate, and diluted 10-fold by a substrate in a K-Pi buffer. NADPH as a co-factor was added to initiate the marker reaction (without preincubation). After a predetermined time of the marker reaction, methanol/acetonitrile=1/1 (v/v) solution was added in order to terminate the marker reaction. On the other hand, NADPH was also added to a remaining pre-reaction solution in order to initiate a pre-reaction (with preincubation). After a predetermined time of a pre-reaction, a part was transferred to another 96-well plate, and diluted 10-fold by a substrate in a K-Pi buffer in order to initiate the marker reaction. After a predetermined time of the marker reaction, methanol/acetonitrile=1/1 (v/v) solution is added in order to terminate the marker reaction. After centrifuged at 3000 rpm for 15 minutes, 1-hydroxymidazolam in the supernatant is quantified by LC/MS/MS.
# The sample adding DMSO to a reaction system instead of compound of the present invention solution was adopted as a control (100%) because DMSO is used as a solvent to dissolve a compound of the present invention. Remaining activity (%) was calculated at each concentration of the compound of the present invention added as the solution, and IC50 value was calculated by reverse-presumption using a logistic model with a concentration and an inhibition rate. Shifted IC value was calculated as “IC value without preincubation (0 minutes)/IC value with preincubation (30 minutes)”. When a shifted IC value was 1.5 or more, this was defined as positive. When a shifted IC value was less than 1.1, this was defined as negative.
# [5] = single dose 5 mg/kg, relevant decrease = >20% decrease
# [6] = single dose 10 mg/kg, relevant decrease = >20% decrease
# T2 sequence (P08684 whole entry): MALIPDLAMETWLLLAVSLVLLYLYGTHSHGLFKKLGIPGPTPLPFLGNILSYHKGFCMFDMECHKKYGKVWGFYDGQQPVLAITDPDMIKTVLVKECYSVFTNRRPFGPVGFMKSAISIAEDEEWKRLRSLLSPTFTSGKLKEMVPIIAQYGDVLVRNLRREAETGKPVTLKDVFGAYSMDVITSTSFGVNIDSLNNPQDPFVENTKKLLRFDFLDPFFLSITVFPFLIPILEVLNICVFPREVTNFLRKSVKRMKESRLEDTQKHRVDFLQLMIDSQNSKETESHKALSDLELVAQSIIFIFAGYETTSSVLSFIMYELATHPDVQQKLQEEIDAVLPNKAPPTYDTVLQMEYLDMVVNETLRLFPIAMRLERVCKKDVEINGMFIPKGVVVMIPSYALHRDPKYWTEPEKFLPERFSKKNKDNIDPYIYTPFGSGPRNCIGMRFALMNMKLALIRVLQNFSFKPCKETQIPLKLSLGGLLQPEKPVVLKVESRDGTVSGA
# BACE1, sequence (P56817 46-501): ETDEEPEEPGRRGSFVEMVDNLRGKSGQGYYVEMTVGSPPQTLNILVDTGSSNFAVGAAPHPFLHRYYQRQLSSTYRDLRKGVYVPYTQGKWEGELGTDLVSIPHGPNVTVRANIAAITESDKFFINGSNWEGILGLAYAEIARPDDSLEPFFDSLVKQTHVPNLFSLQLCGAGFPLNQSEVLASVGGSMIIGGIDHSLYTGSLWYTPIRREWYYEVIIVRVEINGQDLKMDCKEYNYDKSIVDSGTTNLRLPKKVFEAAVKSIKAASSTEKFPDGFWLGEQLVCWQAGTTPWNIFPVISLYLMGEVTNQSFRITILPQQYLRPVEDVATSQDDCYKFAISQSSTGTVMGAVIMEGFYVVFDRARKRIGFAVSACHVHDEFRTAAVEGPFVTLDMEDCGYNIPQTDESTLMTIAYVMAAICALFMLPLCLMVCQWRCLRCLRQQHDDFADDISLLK
structure (smiles),measurement,setting,value
CN1C(N)=N[C@](C)(c2cc(NC(=O)c3cc4c(cn3)OC(F)(F)CO4)ccc2F)CS1(=O)=O [Compound I-011],% Decrease in Abeta 1-42 at 8 h post dosing compared to own baseline,[1]; single dose 5 mg/kg,−54%
same,% Decrease in Abeta 1-42 at 25 h post dosing compared to own baseline,[1]; [5],−37%
same,% Decrease in Abeta 1-42 at 8 h post dosing compared to own baseline,[1]; single dose 10 mg/kg,−74%
same,% Decrease in Abeta 1-42 at 25 h post dosing compared to own baseline,[1]; [6],−77%
same,% Decrease in Abeta 1-42 at 49 h post dosing compared to own baseline,"[1]; single dose 10 mg/kg, 49 h, relevant decrease = >20% decrease",−30%
same,selectivity,[2],15.9
same,IC50,[2],1.2 nM
same,IC50,[3],18.6 nM
same,MBI MDZ,[4],Negative
CN1C(N)=N[C@](C)(c2cc(NC(=O)c3cc4c(cn3)OC(F)(F)O4)ccc2F)CS1(=O)=O [Compound I-012],selectivity,[2],18.7
same,IC50,[2],2.9 nM
same,IC50,[3],53.7 nM
same,MBI MDZ,[4],Negative
CC1(C)C(N)=N[C@](C)(c2cc(NC(=O)c3cc4c(cn3)OC(F)(F)CO4)ccc2F)CS1(=O)=O [Compound I-024],% Decrease in Abeta 1-42 at 8 h post dosing compared to own baseline,[1]; single dose 0.63 mg/kg,−40%
same,% Decrease in Abeta 1-42 at 8 h post dosing compared to own baseline,[1]; single dose 2.5 mg/kg,−66%
same,MBI MDZ,[4],Negative
[2H]C1([2H])Oc2cnc(C(=O)Nc3ccc(F)c([C@]4(C)CS(=O)(=O)C(C)(C)C(N)=N4)c3)cc2OC1([2H])[2H] [Compound I-026],MBI MDZ,[4],Negative
CC1(C)C(N)=N[C@](C)(c2cc(NC(=O)c3cc4c(cn3)OC(F)(F)O4)ccc2F)CS1(=O)=O [Compound I-027],MBI MDZ,[4],Negative
NC1=N[C@](CF)(c2cc(NC(=O)c3cc4c(cn3)OC(F)(F)CO4)ccc2F)[C@H]2COCC[C@H]2O1 [Compound I-035],% Decrease in Abeta 1-42 at 8 h post dosing compared to own baseline,[1]; single dose 2.5 mg/kg,−52%
same,% Decrease in Abeta 1-42 at 8 h post dosing compared to own baseline,[1]; single dose 5 mg/kg,−63%
same,% Decrease in Abeta 1-42 at 25 h post dosing compared to own baseline,[1]; [5],−27%
same,% Decrease in Abeta 1-42 at 8 h post dosing compared to own baseline,[1]; single dose 10 mg/kg,−82%
same,% Decrease in Abeta 1-42 at 25 h post dosing compared to own baseline,[1]; [6],−28%
same,selectivity,[2],301
same,IC50,[2],2.2 nM
same,IC50,[3],661 nM
same,MBI MDZ,[4],Negative
NC1=N[C@](CF)(c2cc(NC(=O)c3cc4c(cn3)OC(F)(F)O4)ccc2F)[C@H]2COCC[C@H]2O1 [Compound I-036],selectivity,[2],166
same,IC50,[2],13.2 nM
same,IC50,[3],2190 nM
same,MBI MDZ,[4],Negative
NC1=N[C@](CF)(c2cc(NC(=O)c3cc4c(cn3)OC(F)(F)CO4)ccc2F)[C@H]2CCOC[C@H]2O1 [Compound I-046],selectivity,[2],263
same,IC50,[2],8.32 nM
same,IC50,[3],2190 nM
same,MBI MDZ,[4],Negative
C[C@H]1OC[C@H]2[C@@H]1OC(N)=N[C@]2(CF)c1cc(NC(=O)c2cc3c(cn2)OC(F)(F)CO3)ccc1F [Compound I-049],selectivity,[2],136
same,IC50,[2],3.6 nM
same,IC50,[3],490 nM
same,MBI MDZ,[4],Negative
C[C@@H]1C[C@H]2OC(N)=N[C@](CF)(c3cc(NC(=O)c4cc5c(cn4)OC(F)(F)CO5)ccc3F)[C@H]2CO1 [Compound I-053],% Decrease in Abeta 1-42 at 8 h post dosing compared to own baseline,[1]; single dose 0.63 mg/kg,−31%
same,% Decrease in Abeta 1-42 at 8 h post dosing compared to own baseline,[1]; single dose 2.5 mg/kg,−50%
same,% Decrease in Abeta 1-42 at 25 h post dosing compared to own baseline,"[1]; single dose 2.5 mg/kg, relevant decrease = >20% decrease",−27%
same,selectivity,[2],200
same,IC50,[2],10 nM
same,IC50,[3],2000 nM
